Each structure is given as a SMILES string.

Experiment [1] concerns the target T1, E3 ubiquitin-protein ligase Mdm2 [1-118,T47W] (Homo sapiens, UniProt Q00987, T47W).
T1 construct: 1-118
Put plainly: Microscale Thermophoresis (MT) Binding Assay. The note with it: pH 7.4; 25 °C. As for the experimental part:
Experiments were performed in 50 mM phosphate buffer at pH 7.4 containing 150 mM NaCl, 5 mM DTT, and 5% DMSO.
(In general: MST reads how a fluorescent partner responds to local heating, with and without ligand.)

Experiment [2] concerns the target T2, E3 ubiquitin-protein ligase Mdm2 [1-118] (Homo sapiens, UniProt Q00987).
T2 construct: 1-118
Put plainly: NMR Measurements. The note with it: pH 7.4; 15 °C.

By Kd is commonly meant the equilibrium constant for the complex coming apart. Turning to `O=C1OC(O)(Cc2ccc(Cl)cc2)C(Cc2ccc(Cl)cc2)=C1c1c[nH]c2cc(Cl)ccc12` (centres undefined) [4,5-di(4-chlorobenzyl)-3-(6-chloro-1H-indol-3-yl)-5-hydroxy-1,5-dihydro-2H-furan-2-one (2b)], the equilibrium dissociation constant (Kd) in experiment [1] was found to be 1.5 µM; in experiment [2] it was 86 µM.

`CN1C(=O)C(c2ccc(Cl)cc2)=C(c2c[nH]c3cc(Cl)ccc23)C1(O)Cc1ccc(Cl)cc1` (centres undefined) [N-Methyl-5-(4-chlorobenzyl)-4-(6-chloro-1H-indol-3-yl)-3-(4-chlorophenyl)-5-hydroxy-1,5-dihydro-2H-pyrrol-2-one (1c)]: the equilibrium dissociation constant (Kd) in experiment [1] amounted to 18.7 µM; in experiment [2] it was 51 µM. For `O=C1OC(O)(Cc2ccc(Cl)cc2)C(c2c[nH]c3cc(Cl)ccc23)=C1c1ccc(Cl)cc1` (centres undefined) [5-(4-Chlorobenzyl)-4-(6-chloro-1H-indol-3-yl)-3-(4-chlorophenyl)-5-hydroxy-1,5-dihydro-2H-furan-2-one (2e)], the Kd was determined as 1.3 µM in experiment [1] and 60 µM in experiment [2]. For `O=C1C(c2c[nH]c3cc(Cl)ccc23)=C(c2ccc(Cl)cc2)C(O)N1Cc1ccc(Cl)cc1` (centres undefined) [N-(4-Chlorobenzyl)-3-(6-chloro-1H-indol-3-yl)-4-(4-chlorophenyl)-5-hydroxy-1,5-dihydro-2H-pyrrol-2-on (1h)], the Kd in experiment [1] was 2.1 µM; in experiment [2], 40 µM. As for `O=C1OC(O)(Cc2ccc(F)cc2)C(c2c[nH]c3cc(Cl)ccc23)=C1Cc1ccc(Cl)cc1` (centres undefined) [3-(4-Chlorobenzyl)-4-(6-chloro-1H-indol-3-yl)-5-(4-fluorobenzyl)-5-hydroxy-1,5-dihydro-2H-furan-2-one (2c)], the Kd in experiment [1] is 28.7 µM; in experiment [2] it was 18 µM. As to `CN1C(=O)C(c2c[nH]c3cc(Cl)ccc23)=C(Cc2ccc(Cl)cc2)C1(O)Cc1ccc(Cl)cc1` (centres undefined) [N-methyl-4,5-di(4-chlorobenzyl)-3-(6-chloro-1H-indol-3-yl)-5-hydroxy-1,5-dihydro-2H-pyrrol-2-one (1b)], in experiment [2], the Kd amounted to 56 µM. Take `O=C1OC(O)(Cc2ccc(Cl)cc2)C(c2ccc(Cl)cc2)=C1c1c[nH]c2cc(Cl)ccc12` (centres undefined) [5-(4-chlorobenzyl)-3-(6-chloro-1H-indol-3-yl)-4-(4-chlorophenyl)-5-hydroxy-1,5-dihydro-2H-furan-2-one (2f)]: the results for the Kd in experiment [1] and in experiment [2] were 7 µM and 68 µM, respectively. Turning to `O=C1C(c2ccc(Cl)cc2)=C(c2c[nH]c3cc(Cl)ccc23)C(O)N1Cc1ccc(Cl)cc1` (centres undefined) [N-(4-chlorobenzyl)-4-(6-chloro-1H-indol-3-yl)-3-(4-chlorophenyl)-5-hydroxy-1,5-dihydro-2H-pyrrol-2-on (1g)], the Kd worked out at 24.4 µM in experiment [1] and 164 µM in experiment [2]. The corresponding values for `CN1C(=O)C(Cc2ccc(Cl)cc2)=C(c2c[nH]c3cc(Cl)ccc23)C1(O)Cc1ccc(Cl)cc1` (centres undefined) [N-Methyl-3,5-di(4-chlorobenzyl)-4-(6-chloro-1H-indol-3-yl)-5-hydroxy-1,5-dihydro-2H-pyrrol-2-one (1a)] are 0.5 µM and below 1 µM. On to `CN1C(=O)C(c2ccc(Cl)cc2)=C(c2cn(C)c3cc(Cl)ccc23)C1(O)Cc1ccc(Cl)cc1` (centres undefined) [N-Methyl-5-(4-chlorobenzyl)-4-(6-chloro-1-methyl-1H-indol-3-yl)-3-(4-chlorophenyl)-5-hydroxy-1,5-dihydro-2H-pyrrol-2-one (1e)], for which the Kd in experiment [1] is 40.5 µM; in experiment [2], 365 µM. Regarding `CN1C(=O)C(c2cn(C)c3cc(Cl)ccc23)=C(c2ccc(Cl)cc2)C1(O)Cc1ccc(Cl)cc1` (centres undefined) [N-methyl-5-(4-chlorobenzyl)-3-(6-chloro-1-methyl-1H-indol-3-yl)-4-(4-chlorophenyl)-5-hydroxy-1,5-dihydro-2H-pyrrol-2-one (1f)], the equilibrium dissociation constant (Kd) in experiment [1] came to 30.4 µM; in experiment [2], 246 µM. On to `O=C1OC(O)(Cc2ccc(F)cc2)C(Cc2ccc(Cl)cc2)=C1c1c[nH]c2cc(Cl)ccc12` (centres undefined) [4-(4-chlorobenzyl)-3-(6-chloro-1H-indol-3-yl)-5-(4-fluorobenzyl)-5-hydroxy-1,5-dihydro-2H-furan-2-one (2d)], for which binding in experiment [1] was put at a Kd of 26 µM.

On to `CN1C(=O)C(c2c[nH]c3cc(Cl)ccc23)=C(c2ccc(Cl)cc2)C1(O)Cc1ccc(Cl)cc1` (centres undefined) [N-methyl-5-(4-chlorobenzyl)-3-(6-chloro-1H-indol-3-yl)-4-(4-chlorophenyl)-5-hydroxy-1,5-dihydro-2H-pyrrol-2-one (1d)], for which the equilibrium dissociation constant (Kd) came out at 27.7 µM in experiment [1] and 192 µM in experiment [2].

The record behind these values is BindingDB's records for doi:10.1021/acschembio.6b00596 (Jagiellonian University, 2016).
